In US7786040B2, “4-cyclopropyl-1,2,3,-thiadiazole compound, agrohorticultural plant disease controlling agent and method of using the same” (Nihon Nohyaku Co., Ltd., priority 2005, dated 2010):

Tests used:
[1] = test system: powdery mildew fungus (Blumeria graminis); assay: Test Example 1: controlling effect by seed dressing against wheat powdery mildew; format: in vivo; details: 0.15% active ingredient based on weight of dry seeds, inoculated 25 days after sowing, investigated 7 days after inoculation
Source text: (§1) Seeds of wheat (cultivar: chihoku komugi) and a wettable powder prepared according to Formulation Example were placed in a vinyl bag, followed by adding thereto a small volume of water, and they were mixed to conduct seed dressing. On the day after this treatment, the seeds sowed in a plastic pot of 10 cm diameter, and cultivated in a greenhouse. Twenty five days after sowing, the seedlings thus obtained were inoculated with powdery mildew fungus (Blumeria graminis) by sprinkling. Seven days after inoculation, the seedlings were investigated and infection index was estimated according to the criterion shown below, after which the control efficacy (%) was calculated. In this occasion, infection index on the untreated plot was 8.0. As comparative examples, the following compounds described in JP-A-2001-10909 were evaluated. • I: 3′-chloro-4,4′-dimethyl-1,2,3-thiadiazole-5-carboxanilide • II: benzyl 4-isopropyl-1,2,3-thiadiazole-5-carboxylate • III: methyl 4-cyclopropyl-1,2,3-thiadiazole-5-carboxylate • IV: 4-cyclopropyl-1,2,3-thiadiazole-5-carboxylic acid Infection Index • 0: No infection. • 0.5: Lesion area percentage: less than 10% • 1: Lesion area percentage; 10 to less than 20% • 2: Lesion area percentage; 20 to less than 30% • 3: Lesion area percentage; 30 to less than 40% • 4: Lesion area percentage; 40 to less than 50% • 5: Lesion area percentage; 50 to less than 60% • 6: Lesion area percentage; 60 to less than 70% • 7: Lesion area percentage; 70 to less than 80% • 8: Lesion area percentage; 80 to less than 90% • 9: Lesion area percentage; 90 to less than 100% • 10: Lesion area percentage; 100% Control efficacy (%)={1-(infection index on treated plot/infection index on untreated plot)}×100 Rank of Control Efficacy • A: Control efficacy 100-90% • B: Control efficacy 89-80% • C: Control efficacy 79-60% • D: Control efficacy 59-0%

[2] = test system: powdery mildew fungus (Blumeria graminis); assay: Test Example 2: controlling effect by seed dressing against wheat powdery mildew, long-lasting effect; format: in vivo; details: 0.15% active ingredient based on weight of dry seeds, inoculated 50 days after sowing, investigated 7 days after inoculation
Source text: as §1
Seeds of wheat (cultivar: Chihoku Komugi) and a wettable powder prepared according to Formulation Example were placed in a vinyl bag, followed by adding thereto a small volume of water, and they were mixed to conduct seed dressing. On the day after this treatment, the seeds sowed in a plastic pot of 10 cm diameter, and cultivated in a greenhouse. Fifty days after sowing, the seedlings thus obtained were inoculated with powdery mildew fungus (Blumeria graminis) by sprinkling. Seven days after inoculation, the seedlings were investigated and infection index was estimated according to the criterion shown below, after which the control efficacy (%) was calculated. In this occasion, infection index on the untreated plot was 8.0. As comparative examples, the above-described compounds I, II, III and IV were evaluated.

Structure (SMILES) | Rank of control efficacy [1] | Rank of control efficacy [2]
O=C(OCc1ccccc1Cl)c1snnc1C1CC1 [1-10, (2-chlorobenzyl)4-cyclopropyl-1,2,3-thiadiazole-5-carboxylate] | B or more | B or more
Cc1ccccc1COC(=O)c1snnc1C1CC1 [1-13] | B or more | B or more
Cc1ccc(COC(=O)c2snnc2C2CC2)cc1 [1-15] | B or more | B or more
COc1ccccc1COC(=O)c1snnc1C1CC1 [1-16] | B or more | B or more
COc1ccc(COC(=O)c2snnc2C2CC2)cc1 [1-18] | B or more | B or more
CC(C)(C)OC(=O)c1ccc(COC(=O)c2snnc2C2CC2)cc1 [1-25] | B or more | 
O=C(OCc1ccc(Cl)cc1Cl)c1snnc1C1CC1 [1-26] | B or more | 
CC(OC(=O)c1snnc1C1CC1)c1ccccc1 (stereo not drawn) [1-41] | B or more | B or more
Cc1ccc(C(C)OC(=O)c2snnc2C2CC2)cc1 (stereo not drawn) [1-47] | B or more | 
COc1ccc(C(C)OC(=O)c2snnc2C2CC2)cc1 (stereo not drawn) [1-50] | B or more | B or more
O=C(NCc1ccc(Cl)cc1)c1snnc1C1CC1 [1-56] | B or more | 
Cc1ccc(CNC(=O)c2snnc2C2CC2)cc1 [1-59] | B or more | 
COc1ccc(CNC(=O)c2snnc2C2CC2)cc1 [1-62] | B or more | B or more
Cc1ccc(Oc2ccc(CNC(=O)c3snnc3C3CC3)cc2)cc1 [1-65] | B or more | 
O=C(NCc1ccc(Oc2ccc(C(F)(F)F)cc2)cc1)c1snnc1C1CC1 [1-66] | B or more | 
O=C(NCc1ccc(OCC(F)(F)F)cc1)c1snnc1C1CC1 [1-68] | B or more | B or more
CN(Cc1ccccc1)C(=O)c1snnc1C1CC1 [1-82] | B or more | B or more
COc1ccc(NC(=O)c2snnc2C2CC2)cc1OC [1-97] | B or more | B or more
COC(c1ccc(NC(=O)c2snnc2C2CC2)cc1OC(C)C)(C(F)(F)F)C(F)(F)F [1-103] | B or more | 
O=C(Nc1nc2ccccc2s1)c1snnc1C1CC1 [1-111] | B or more | B or more
O=C(Nc1nnc(C(F)(F)F)s1)c1snnc1C1CC1 [1-112] | B or more | B or more

Structure (SMILES) | Rank of control efficacy [1] | Rank of control efficacy [2]
O=C(NOCc1ccccc1)c1snnc1C1CC1 [1-113] | B or more | B or more
CS(=O)(=O)NC(=O)c1snnc1C1CC1 [1-120] | B or more | 
O=C(NS(=O)(=O)C(F)(F)F)c1snnc1C1CC1 [1-122] | B or more | 
Cc1ccc(NC(=S)c2snnc2C2CC2)cc1Cl [1-143, 3′-chloro-4-cyclopropyl-4′-methyl-1,2,3-thiadiazole-5-thiocarboxamilide] | B or more | B or more
COc1ccc(NC(=S)c2snnc2C2CC2)c(OC)c1 [1-144] | B or more | B or more
C=CCNC(=O)c1snnc1C1CC1 [1-145] | B or more | B or more
Cc1cccc(C)c1NC(=O)c1snnc1C1CC1 [1-151] | B or more | 
CCc1cccc(CC)c1NC(=O)c1snnc1C1CC1 [1-152] | B or more | 
Cc1cccc(C)c1N(C(=O)c1snnc1C1CC1)C(=O)c1snnc1C1CC1 [1-153] | B or more | 
CCc1cccc(CC)c1N(C(=O)c1snnc1C1CC1)C(=O)c1snnc1C1CC1 [1-154] | B or more | 
COc1ccc(OC)c(NC(=O)c2snnc2C2CC2)c1 [1-155] | B or more | B or more
COc1ccc(NC(=O)c2snnc2C2CC2)c(C)c1 [1-156] | B or more | B or more
O=C(NS(=O)(=O)c1ccc(Cl)cc1)c1snnc1C1CC1 [1-157] | B or more | 
O=C(NS(=O)(=O)c1ccccc1Cl)c1snnc1C1CC1 [1-158] | B or more | 
Cc1ccc(CNC(=O)c2snnc2C2CC2)c(C)c1 [1-162] | B or more | 
Cc1ccc(C)c(CNC(=O)c2snnc2C2CC2)c1 [1-163] | B or more | 
O=C(NCc1ccc(Cl)cc1Cl)c1snnc1C1CC1 [1-164] | B or more | 
COc1cccc(CNC(=O)c2snnc2C2CC2)c1OC [1-165] | B or more | B or more
COc1ccc(OC)c(CNC(=O)c2snnc2C2CC2)c1 [1-167] | B or more | B or more
COc1cc(CNC(=O)c2snnc2C2CC2)cc(OC)c1 [1-168] | B or more | 
CCOC(=O)c1csc(NC(=O)c2snnc2C2CC2)n1 [1-169] | B or more | B or more

Structure (SMILES) | Rank of control efficacy [1] | Rank of control efficacy [2]
O=C(Nc1nc(-c2ccccc2)cs1)c1snnc1C1CC1 [1-170] | B or more | B or more
CCOC(=O)c1sc(NC(=O)c2snnc2C2CC2)nc1C [1-173] | B or more | B or more
Cc1nsc(NC(=O)c2snnc2C2CC2)c1Br [1-174] | B or more | 
COc1cc(OC)nc(NC(=O)c2snnc2C2CC2)n1 [1-175] | B or more | B or more
COc1cc(C)nc(NC(=O)c2snnc2C2CC2)n1 [1-176] | B or more | B or more
Cc1cc(C)nc(NC(=O)c2snnc2C2CC2)n1 [1-177] | B or more | B or more
O=C(Nc1nc2ccc(Cl)cc2s1)c1snnc1C1CC1 [1-178] | B or more | B or more
CN(C)c1ccncc1.O=C(Nc1nc2ccc(Cl)cc2s1)c1snnc1C1CC1 [1-179] | B or more | B or more
COc1ccc2nc(NC(=O)c3snnc3C3CC3)sc2c1 [1-180] | B or more | 
CN(C)c1ccncc1.COc1ccc2nc(NC(=O)c3snnc3C3CC3)sc2c1 [1-181] | B or more | 
Cc1nc(-c2ccccc2NC(=O)c2snnc2C2CC2)no1 [1-182] | B or more | 
Cc1nc(-c2cccnc2NC(=O)c2snnc2C2CC2)no1 [1-183] | B or more | B or more
O=C(Nc1cccc2nnsc12)c1snnc1C1CC1 [1-184] | B or more | B or more
O=C(NCc1cnc(Cl)s1)c1snnc1C1CC1 [1-185] | B or more | 
O=C(Nc1cccc2c1C(=O)OC2)c1snnc1C1CC1 [1-186] | B or more | 
CNC(=O)c1ccccc1NC(=O)c1snnc1C1CC1 [1-189] | B or more | B or more
CSc1ccccc1NC(=O)c1snnc1C1CC1 [1-190] | B or more | B or more
O=c1oc(-c2snnc2C2CC2)nc2ccccc12 [2-1, 2-(4-cyclopropyl-1,2,3-thiadiazol-5-yl)-4-H-3,1-benzoxazin-4-one] | B or more | 
N#Cc1snnc1C1CC1 [3-1, 4-cyclopropyl-1,2,3-thiadiazole-5-carbonitrile] | B or more | B or more
CC(C)c1nnsc1C(=O)OCc1ccccc1 [II, benzyl 4-isopropyl-1,2,3-thiadiazole-5-carboxylate, reference compound] | C (Control efficacy 79-60%) | 
